Reference: patent US7754773B2, “Composition and synthesis of new reagents for inhibition of HIV replication” (priority 2005, dated 2010)

What was measured:
Vif [1] = molecular target: T1, Vif (Human immunodeficiency virus type 1 group M subtype B, UniProt P12504); assay: Vif protein levels in H9 cells infected with pNL4-3Luc-E-R-; assay type: cell-based, HIV-1; settings: 12.5, 25 or 50 μM, 48 hours
T1 construct: pNL4-3 (Vif) was used at 50 fmol, and APOBEC3G at 15 fmol; expressed in transfected cells
Procedure: To evaluate the effect of Vif inhibitor 1 on levels of Vif protein, H9 cells were infected with pNL4-3Luc-E-R- using a spinoculation procedure with the virus equivalent of 1 μg pNL4-3 Luc-E-R- or Δ Vif pNL4-3 Luc-E-R- (as measured using p24 ELISA). […] H9 total cell lysates were then prepared, and 20 μg of lysate examined for the presence of cyclin T1, endogenous APOBEC3G, p24, and Vif, the latter two indicative of virus infection.

APOBEC3G [2] = assay: Western blot of APOBEC3G in transfected 293T cell lysates; assay type: cell-based, human; settings: 293T cells, pNL-Luc-E-R-, pVSV-G, APOBEC3G-HA; 3.125-50 μM; 24 hours post-drug
Procedure: (§1) To determine the effect of Vif inhibitor 1 on expression of Vif and APOBC3G, 293T cells were transfected with pNL-Luc-E-R-, pVSV-G, and 15 fmoles APOBEC3G-HA. 4 hours post-transfection, the cells were treated with 3.125, 6.25, 12.5, 25, 50 μM Vif inhibitor 1 or DMSO equivalent as a control. Twenty-four hours post-drug addition, 293T total cell lysates (15 ug) were prepared, and protein lysates examined for APOBEC3G, Vif and, cyclin T1.

APOBEC3F = assay: APOBEC3F-HA level co-expressed with pNL4-3-LucE-R-, Western blot; assay type: cell-based; settings: 3.75, 7.5, 15 or 30 fmoles APOBEC3F-HA; 5 uM
Procedure: (§2) To evaluate the effect of Vif inhibitor 1 on levels of APOBEC3G and APOBEC3F proteins, a dose-response experiment was performed. pNL4-3-LucE-R- was co-expressed with 3.75, 7.5, 15, or 30 fmoles APOBEC3G-HA (or APOBEC3F-HA) in the absence (DMSO) or presence (5 uM) of Vif inhibitor 1. The pNL4-3-LucE-R- ΔVif with the same amounts of APOBEC3G or F in the presence of DMSO were used as controls. APOBEC3G or APOBEC3F expression was confirmed by Western blot using an α HA anti body, with cyclin T1 used as the internal control.

[3] = test system: HIV-1 (X4-tropic HIV-1 variant (HIV-1LAI)); assay: Dose-response of RT activity in HIV-1 infected H9 cells; assay type: cell-based; settings: H9 cells infected with HIV-1LAI; for RT activity / infectivity, dose response: 0, 1, 5, 10, 25 or 50 μM
Procedure: To evaluate the efficacy of Vif inhibitor 1 on RT activity, a dose-response experiment was conducted in infected H9 cells.
Briefly, H9 cells plated at 2×10^5 per well in a 24 well plate were treated overnight with DMSO, plus 0, 1, 5, 10, 25 or 50 μM Vif inhibitor 1 (all at 0.5% DMSO) then infected with HIV-1 (X4-tropic HIV-1 variant (HIV-1LAI)) at 2×10^5 cpm RT per well. All cells were maintained in the presence of DMSO or Vif inhibitor 1 for 14-21 days and viral replication monitored by measurement of reverse transcriptase activity in culture supernatants every second day. Calculation of % relative infectivity was determined on day 7, which was previously determined to be the peak of viral infectivity. Range correction involved fitting cpm data to a 2 parameter equation where the lower limit is 0, i.e. background correction, and the upper data limit is 100, i.e. the data is range corrected. Grafit software was used for the curve fit and calculation of the I.C.50 value.

pNL-Luc-E-R- virus = assay: Infectivity of virus from treated producer cells on 293T cells; assay type: cell-based, HIV-1; settings: 293T cells infected 48 hours with 1 ng virus; producer cells treated with 3.125-50 μM
Procedure: Infectivity was determined by infecting 293T cells for 48 hours with 1 ng virus produced from the producer cells in the experiments shown in FIG. 21A. The infectivity of the sample of virus produced without APOBEC3G was normalized to 100%, and data was representative of three independent experiments.

Vif [4] = molecular target: T1, Vif; assay: Western blot of Vif in transfected 293T cell lysates; assay type: cell-based, HIV-1; settings: 293T cells, pNL-Luc-E-R-, pVSV-G, APOBEC3G-HA; 3.125-50 μM; 24 hours post-drug
Procedure: as §1

Vif [5] = molecular target: T1, Vif; assay: Vif protein levels in H9 versus MT4 cells infected with pNL4-3Luc-E-R-; assay type: cell-based, HIV-1; settings: 50 μM; 48 hours
Procedure: To determine whether there was a difference in the effect of Vif inhibitor 1 on Vif protein levels in permissive versus non-permissive cells, H9 and MT4 cells were infected using a spinoculation procedure with the virus equivalent of 1 μg pNL4-3 Luc-E-R- or Δ Vif pNL4-3 Luc-E-R- (as measured using p24 ELISA). Immediately following infection, H9 or MT4 cells were washed and incubated in complete RPMI medium with 10% FCS containing DMSO (0.5%) or 50 μM Vif inhibitor 1 (also 0.5% DMSO) for 48 hours. H9 or MT4 total cell lysates were then prepared, and 20 μg of lysate was examined for the presence of cyclin T1, endogenous APOBEC3G, p24, and Vif, the latter two being indicative of virus infection.

APOBEC3G [6] = assay: APOBEC3G-HA level co-expressed with pNL4-3-LucE-R-, Western blot; assay type: cell-based, human; settings: 3.75, 7.5, 15 or 30 fmoles APOBEC3G-HA; 5 uM
Procedure: as §2

pNLA1-YFP (Vif activity) = molecular target: T2, pNLA1-YFP (Vif activity) (Human immunodeficiency virus type 1 group M subtype B, UniProt P69723); assay: pNLA1-YFP fluorescence in transfected 293T cells; assay type: cell-based, HIV-1; settings: 3.125-50 μM, with or without 15 fmoles pAPOBEC3G-HA, 24 hours
T2 construct: YFP; expressed in transfected cells; host or cells: 293T cells
Procedure: 293T cells transfected with 50 fmoles pNLA1-YFP or pNLA1-YFP with 15 fmoles pAPOBEC3G-HA were treated 4 HRS post-transfection with 3.125, 6.25, 12.5, 25, 50 μM Vif inhibitor 1 or DMSO equivalent (0). Twenty-four hours post-drug addition, 293T total cell lysates were prepared and normalized to equal protein amounts prior to being monitored, in triplicate, for YFP fluorescence. Curve fits for full dose responses of Vif inhibitor 1 are shown, and calculation of “% Vif activity” for concentration of compound Vif inhibitor 1 was determined using Grafit software.

T1 sequence (P12504 whole entry): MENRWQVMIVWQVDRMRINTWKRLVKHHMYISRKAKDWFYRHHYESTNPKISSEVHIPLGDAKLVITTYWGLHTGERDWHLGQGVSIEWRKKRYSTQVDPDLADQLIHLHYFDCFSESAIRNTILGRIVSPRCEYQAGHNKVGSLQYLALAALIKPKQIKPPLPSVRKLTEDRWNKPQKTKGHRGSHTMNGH
T2 sequence (P69723 whole entry): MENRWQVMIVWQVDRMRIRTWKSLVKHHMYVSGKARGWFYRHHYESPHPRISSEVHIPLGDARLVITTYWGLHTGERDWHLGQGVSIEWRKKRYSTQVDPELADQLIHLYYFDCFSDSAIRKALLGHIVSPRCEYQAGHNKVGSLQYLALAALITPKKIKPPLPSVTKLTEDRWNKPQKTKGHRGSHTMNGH

In the case of COc1ccccc1NC(=O)c1ccccc1Sc1ccc([N+](=O)[O-])cc1 [Vif inhibitor 1, 2-(4-Nitrophenylthio)-N-(2-methoxyphenyl)benzamide], the “Levels of Vif protein in H9 cells” value (Vif [1]) is reported as “significantly reduces levels of Vif protein”, the APOBEC3G expression (APOBEC3G [2]) is reported as “increases APOBEC3G expression” and the APOBEC3F level (APOBEC3F) is reported as “increases”. The “RT activity / infectivity, dose response” value [3] was “inhibits RT activity in a dose dependent manner”, the “RT activity / infectivity, dose response” value ([3]; listed as Vif Inhibitor 1) was “dose-dependent decrease in infectivity” and the IC50 ([3]; Human immunodeficiency virus 1, 168 h, 0-50 μM, determined on day 7, read-out: I.C.50 of RT activity (% relative infectivity)) was ~6.4 µM. The “Infectivity of virus produced from treated producer cells” value (pNL-Luc-E-R- virus) was “decrease infectivity in a dose-dependent manner”, the Vif expression (Vif [4]) was “decreases Vif expression” and the “Levels of Vif protein, non-permissive H9 versus permissive MT4 cells” value (Vif [5]) was “significantly reduces levels of Vif protein in non-permissive H9 cells compared to permissive MT4 cells”. The APOBEC3G level (APOBEC3G [6]) was “increases” and the “pNLA1-YFP fluorescence (% Vif activity)” value (pNLA1-YFP (Vif activity)) was “dose-dependent decrease in pNLA1-YFP only in the presence of APOBEC3G”.
